{"source": "patent US20250381180A1", "about": "“METHODS OF TREATING OR PREVENTING OVERACTIVE BLADDER SYNDROME” (Purdue Pharma L.P., priority 2022, published 2025)", "assay": "Phase 1 single-dose pharmacokinetics, mild renal impairment vs normal renal function", "format": "in vivo, human", "settings": "single oral 1.0-mg immediate-release tablet", "description": "This was a phase 1, nonrandomized, open-label, parallel-group, single-dose study. A total of 20 subjects (10 subjects with mild renal impairment and 10 healthy subjects with normal renal function) were studied.\nAt screening, subjects were assigned to a study group according to estimated glomerular filtration rate (eGFR), calculated using the 2021 Chronic Kidney Disease Collaboration (CKD-EPI 2021) formula as follows, in Table 11: […]\nSubjects remained fasted for 4 hours after study drug dosing (except diabetic subjects, who were allowed a light breakfast at 2 hours after study drug dosing as judged by the investigator). Except as part of study drug administration, subjects restricted their consumption of water for 2 hours before dosing and for 2 hours after dosing. At all other times during the study, subjects were able to consume water ad libitum.", "data": [{"compound": "O=C(O)c1nc2ccccc2n([C@H]2C[C@H]3CCC[C@@H](C2)N3C2CC3CCCC(C3)C2)c1=O", "note": "(some centres unmarked) [Cpd (IA)]", "values": [{"measurement": "plasma concentrations at 72 and 96 hours", "setting": "all subjects", "value": "all below the limit of quantitation"}, {"measurement": "plasma concentrations over time, mild renal impairment versus normal renal function", "setting": "n=10 per group", "value": "comparable"}]}]}
